Reference: PMC6225345, “Structural Characterization of the Lactobacillus Plantarum FlmC Protein Involved in Biofilm Formation” (Molecules : A Journal of Synthetic Chemistry and Natural …, 2018)

Biological target: T1, ΔTM-FlmC (FlmC81-335) (Lactiplantibacillus plantarum, UniProt F9UMI5)
T1 construct: gene lp_1000
Test: co-purification from E. coli; organic extraction of unfolded protein, TLC and UHPLC-HRMS
Assay type: binding
Conditions: lipid acquired from expression host; identity inferred from m/z 775.5789 (+, in-source dehydro form) and 387.2863 (2-), tentative

T1 sequence (F9UMI5 entry or part of it, stated change not applied): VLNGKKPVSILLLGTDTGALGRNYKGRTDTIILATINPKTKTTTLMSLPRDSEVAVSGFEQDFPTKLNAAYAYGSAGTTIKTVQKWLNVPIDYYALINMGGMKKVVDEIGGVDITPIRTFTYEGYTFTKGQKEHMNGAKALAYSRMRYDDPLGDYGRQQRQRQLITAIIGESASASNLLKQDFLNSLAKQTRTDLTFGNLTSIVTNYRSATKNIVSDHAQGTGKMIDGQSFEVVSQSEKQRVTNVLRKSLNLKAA

With `CC(C)=CCCC(C)=CCCC(C)=CCCC(C)=CCCC(C)=CCCC(C)=CCCC(C)=CCCC(C)=CCCC(C)=CCCC(C)=CCOP(=O)(O)O` [decaprenyl phosphate] as the molecule, how does the “co-purification from E. coli; organic extraction of unfolded protein, TLC and UH” value read?
The value was “occurrence of a decaprenyl phosphate (dpr-P) ligand tightly bound to the protein was hypothesized”.
